Legend:
Format in all cases: cell-based
[1] = target: T1, pERK1/2 (Thr202/Tyr204), NCI-1H358 (KRAS G12C) (Homo sapiens, UniProt P01116, G12C); assay: Assay of intracellular pERK1/2 (Thr202/Tyr204) phosphorylation in NCI-H358 cells (KRAS G12C); conditions: pERK1/2, 2 days, read-out: NCI-H358 (KRAS G12C) IC50
T1 construct: pERK1/2 HTRF read-out
Method in brief: (§1)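 HTRF detection of Thr202/Tyr204-phosphorylated ERK1/2 (665/615 nm ratio) in lysates from cells treated 2 days with serially 3-fold diluted compound.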

[2] = target: T2, pERK1/2 (Thr202/Tyr204), PANC-1 (KRAS G121D) (Homo sapiens, UniProt P01116, G12D); assay: Assay of intracellular pERK1/2 (Thr202/Tyr204) phosphorylation in PANC-1 cells (KRAS G12D); conditions: pERK1/2, 2 days, read-out: PANC-1 (KRAS G12D) IC50
T2 construct: pERK1/2 HTRF read-out
T2 sequence (P01116 1-188 isoform P01116-2 G12D): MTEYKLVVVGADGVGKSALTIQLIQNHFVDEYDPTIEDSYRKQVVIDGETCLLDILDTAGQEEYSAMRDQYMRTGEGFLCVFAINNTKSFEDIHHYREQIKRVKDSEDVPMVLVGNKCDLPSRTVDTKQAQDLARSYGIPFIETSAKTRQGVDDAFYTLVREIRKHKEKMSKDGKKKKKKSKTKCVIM
Method in brief: as §1

[3] = target: T3, pERK1/2 (Thr202/Tyr204), NCI-1H441 (KRAS G12V) (Homo sapiens, UniProt P01116, G12V); assay: Assay of intracellular pERK1/2 (Thr202/Tyr204) phosphorylation in NCI-H441 cells (KRAS G12V); conditions: pERK1/2, 2 days, read-out: NCI-H441 (KRAS G12V) IC50
T3 construct: pERK1/2 HTRF read-out
T3 sequence (P01116 1-188 isoform P01116-2 G12V): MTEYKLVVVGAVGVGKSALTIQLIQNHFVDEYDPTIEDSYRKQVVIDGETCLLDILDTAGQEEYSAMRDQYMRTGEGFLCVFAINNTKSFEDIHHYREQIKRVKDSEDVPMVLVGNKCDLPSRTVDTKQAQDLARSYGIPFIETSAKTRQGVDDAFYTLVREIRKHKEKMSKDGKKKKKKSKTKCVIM
Method in brief: as §1

T1 sequence (P01116 1-188 isoform P01116-2 G12C): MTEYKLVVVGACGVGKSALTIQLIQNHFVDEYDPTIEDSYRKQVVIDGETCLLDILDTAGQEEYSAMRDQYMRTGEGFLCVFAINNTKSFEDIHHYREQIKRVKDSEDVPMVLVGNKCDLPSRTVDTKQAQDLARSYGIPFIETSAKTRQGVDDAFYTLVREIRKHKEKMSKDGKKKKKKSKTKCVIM

Row | Structure (SMILES) | IC50 [1] [nM] | IC50 [2] [nM] | IC50 [3] [nM]
1 | CC(c1cccnc1N)N1CCOc2nc(-c3cc(N)cc(Cl)c3C(F)(F)F)c(F)c3nc(OC[C@@]45CCCN4C[C@H](F)C5)nc1c23 (single isomer, unassigned) [Compound 71, 3-((R or S)-1-(5-(5-amino-3-chloro-2-(trifluoromethyl)phenyl)-4-fluoro-2-(((2R,7aS)-2-fluorotetrahydro-1H-pyrrolizin-7a(5H)-yl)methoxy)-8,9-dihydro-10H-7-oxa-1,3,6,10-tetraazacyclohepta[de]naphthalen-10-yl)ethyl)pyridin-2-amine] | 0.1 | 0.6 | 0.4
2 | CC(c1cccnc1N)N1CCOc2nc(-c3cc(N)cc(Cl)c3C(F)(F)F)c(F)c3nc(OC[C@@]45CCCN4C[C@H](F)C5)nc1c23 (single isomer, unassigned) [Compound 72, 3-((R or S)-1-(5-(5-amino-3-chloro-2-(trifluoromethyl)phenyl)-4-fluoro-2-(((2R,7aS)-2-fluorotetrahydro-1H-pyrrolizin-7a(5H)-yl)methoxy)-8,9-dihydro-10H-7-oxa-1,3,6,10-tetraazacyclohepta[de]naphthalen-10-yl)ethyl)pyridin-2-amine] | 11 | 38 | 13
3 | CC(c1cccnc1N)N1CCOc2nc(-c3cc(N)cc(Cl)c3C3CC3)c(F)c3nc(OC[C@@]45CCCN4C[C@H](F)C5)nc1c23 (single isomer, unassigned) [Compound 74, 3-((R or S)-1-(5-(5-amino-3-chloro-2-cyclopropylphenyl)-4-fluoro-2-(((2R,7aS)-2-fluorotetrahydro-1H-pyrrolizin-7a(5H)-yl)methoxy)-8,9-dihydro-10H-7-oxa-1,3,6,10-tetraazacyclohepta[de]naphthalen-10-yl)ethyl)pyridin-2-amine] | 0.2 | 4 | 0.4
4 | CC(c1cccnc1N)N1CCOc2nc(-c3cc(N)cc(Cl)c3C3CC3)c(F)c3nc(OC[C@@]45CCCN4C[C@H](F)C5)nc1c23 (single isomer, unassigned) [Compound 75, 3-((R or S)-1-(5-(5-amino-3-chloro-2-cyclopropylphenyl)-4-fluoro-2-(((2R,7aS)-2-fluorotetrahydro-1H-pyrrolizin-7a(5H)-yl)methoxy)-8,9-dihydro-10H-7-oxa-1,3,6,10-tetraazacyclohepta[de]naphthalen-10-yl)ethyl)pyridin-2-amine] | 5 | 40 | 11
5 | Cc1cc(N)cc(-c2nc3c4c(nc(OC[C@@H]5CCCN5C)nc4c2F)N(C(C)c2cccnc2N)CCO3)c1C(F)(F)F (single isomer, unassigned) [Compound 76, 3-((R or S)-1-(5-(5-amino-3-methyl-2-(trifluoromethyl)phenyl)-4-fluoro-2-(((S)-1-methylpyrrolidin-2-yl)methoxy)-8,9-dihydro-10H-7-oxa-1,3,6,10-tetraazacyclohepta[de]naphthalen-10-yl)ethyl)pyridin-2-amine] | 0.5 | 18 | 0.7
6 | Cc1cc(N)cc(-c2nc3c4c(nc(OC[C@@H]5CCCN5C)nc4c2F)N(C(C)c2cccnc2N)CCO3)c1C(F)(F)F (single isomer, unassigned) [Compound 77, 3-((R or S)-1-(5-(5-amino-3-methyl-2-(trifluoromethyl)phenyl)-4-fluoro-2-(((S)-1-methylpyrrolidin-2-yl)methoxy)-8,9-dihydro-10H-7-oxa-1,3,6,10-tetraazacyclohepta[de]naphthalen-10-yl)ethyl)pyridin-2-amine] | 38 | > 100 | 37
7 | Cc1cc(N)cc(-c2nc3c4c(nc(OC[C@H]5CCCN5CCF)nc4c2F)N(C(C)c2cccnc2N)CCO3)c1C(F)(F)F (single isomer, unassigned) [Compound 78, 3-((R or S)-1-(5-(5-amino-3-methyl-2-(trifluoromethyl)phenyl)-4-fluoro-2-(((R)-1-(2-fluoroethyl)pyrrolidin-2-yl)methoxy)-8,9-dihydro-10H-7-oxa-1,3,6,10-tetraazacyclohepta[de]naphthalen-10-yl)ethyl)pyridin-2-amine] | 2 | 42 | 3

Now from value to compound:

Row | IC50 [1] [nM] | IC50 [2] [nM] | IC50 [3] [nM] | Structure (SMILES)
8 | > 100 | > 100 | > 100 | Cc1cc(N)cc(-c2nc3c4c(nc(OC[C@H]5CCCN5CCF)nc4c2F)N(C(C)c2cccnc2N)CCO3)c1C(F)(F)F (single isomer, unassigned) [Compound 79, 3-((R or S)-1-(5-(5-amino-3-methyl-2-(trifluoromethyl)phenyl)-4-fluoro-2-(((R)-1-(2-fluoroethyl)pyrrolidin-2-yl)methoxy)-8,9-dihydro-10H-7-oxa-1,3,6,10-tetraazacyclohepta[de]naphthalen-10-yl)ethyl)pyridin-2-amine]
9 | 0.5 | 19 | 0.7 | Cc1cc(N)cc(-c2nc3c4c(nc(OC[C@@H]5C[C@@H](F)CN5C)nc4c2F)N(C(C)c2cccnc2N)CCO3)c1C(F)(F)F (single isomer, unassigned) [Compound 80, 3-((R or S)-1-(5-(5-amino-3-methyl-2-(trifluoromethyl)phenyl)-4-fluoro-2-(((2S,4R)-4-fluoro-1-methylpyrrolidin-2-yl)methoxy)-8,9-dihydro-10H-7-oxa-1,3,6,10-tetraazacyclohepta[de]naphthalen-10-yl)ethyl)pyridin-2-amine]
10 | > 100 | > 100 | > 100 | Cc1cc(N)cc(-c2nc3c4c(nc(OC[C@@H]5C[C@@H](F)CN5C)nc4c2F)N(C(C)c2cccnc2N)CCO3)c1C(F)(F)F (single isomer, unassigned) [Compound 81, 3-((R or S)-1-(5-(5-amino-3-methyl-2-(trifluoromethyl)phenyl)-4-fluoro-2-(((2S,4R)-4-fluoro-1-methylpyrrolidin-2-yl)methoxy)-8,9-dihydro-10H-7-oxa-1,3,6,10-tetraazacyclohepta[de]naphthalen-10-yl)ethyl)pyridin-2-amine]
11 | 0.4 | 11 | 2 | Cc1c(F)c(N)cc(-c2nc3c4c(nc(OC[C@@H]5CCCN5C)nc4c2F)N(C(C)c2cccnc2N)CCO3)c1C(F)(F)F (single isomer, unassigned) [Compound 85, 3-((R or S)-1-(5-(5-amino-4-fluoro-3-methyl-2-(trifluoromethyl)phenyl)-4-fluoro-2-(((S)-1-methylpyrrolidin-2-yl)methoxy)-8,9-dihydro-10H-7-oxa-1,3,6,10-tetraazacyclohepta[de]naphthalen-10-yl)ethyl)pyridin-2-amine]
12 | 29 | > 100 | 43 | Cc1c(F)c(N)cc(-c2nc3c4c(nc(OC[C@@H]5CCCN5C)nc4c2F)N(C(C)c2cccnc2N)CCO3)c1C(F)(F)F (single isomer, unassigned) [Compound 86, 3-((R or S)-1-(5-(5-amino-4-fluoro-3-methyl-2-(trifluoromethyl)phenyl)-4-fluoro-2-(((S)-1-methylpyrrolidin-2-yl)methoxy)-8,9-dihydro-10H-7-oxa-1,3,6,10-tetraazacyclohepta[de]naphthalen-10-yl)ethyl)pyridin-2-amine]
13 | 0.4 | 3 | 1 | CC(c1cccnc1N)N1CCOc2nc(-c3cc(N)cc(F)c3C(F)(F)F)c(F)c3nc(OC[C@@]45CCCN4C[C@H](F)C5)nc1c23 (single isomer, unassigned) [Compound 88, 3-((R or S)-1-(5-(5-amino-3-fluoro-2-(trifluoromethyl)phenyl)-4-fluoro-2-(((2R,7aS)-2-fluorotetrahydro-1H-pyrrolizin-7a(5H)-yl)methoxy)-8,9-dihydro-10H-7-oxa-1,3,6,10-tetraazacyclohepta[de]naphthalen-10-yl)ethyl)pyridin-2-amine]
14 | 26 | > 100 | 43 | CC(c1cccnc1N)N1CCOc2nc(-c3cc(N)cc(F)c3C(F)(F)F)c(F)c3nc(OC[C@@]45CCCN4C[C@H](F)C5)nc1c23 (single isomer, unassigned) [Compound 89, 3-((R or S)-1-(5-(5-amino-3-fluoro-2-(trifluoromethyl)phenyl)-4-fluoro-2-(((2R,7aS)-2-fluorotetrahydro-1H-pyrrolizin-7a(5H)-yl)methoxy)-8,9-dihydro-10H-7-oxa-1,3,6,10-tetraazacyclohepta[de]naphthalen-10-yl)ethyl)pyridin-2-amine]
15 | 2 | 91 | 6 | CC(c1cccnc1N)N1CCOc2nc(-c3cc(N)cc(F)c3C(F)(F)F)c(F)c3nc(OC[C@@H]4CCCN4C)nc1c23 (single isomer, unassigned) [Compound 90, 3-((R or S)-1-(5-(5-amino-3-fluoro-2-(trifluoromethyl)phenyl)-4-fluoro-2-(((S)-1-methylpyrrolidin-2-yl)methoxy)-8,9-dihydro-10H-7-oxa-1,3,6,10-tetraazacyclohepta[de]naphthalen-10-yl)ethyl)pyridin-2-amine]
16 | > 100 | > 100 | > 100 | CC(c1cccnc1N)N1CCOc2nc(-c3cc(N)cc(F)c3C(F)(F)F)c(F)c3nc(OC[C@@H]4CCCN4C)nc1c23 (single isomer, unassigned) [Compound 91, 3-((R or S)-1-(5-(5-amino-3-fluoro-2-(trifluoromethyl)phenyl)-4-fluoro-2-(((S)-1-methylpyrrolidin-2-yl)methoxy)-8,9-dihydro-10H-7-oxa-1,3,6,10-tetraazacyclohepta[de]naphthalen-10-yl)ethyl)pyridin-2-amine]
